The test system of the test is GDF8 signaling (p-SMAD-3 (Ser423/425)). Put plainly: AlphaScreen SureFire SMAD3 (p-Ser423/425) assay, GDF8-stimulated cells (GDF pSMAD). The format is cell-based. The settings on record: Mus musculus, MPC-11, MPC11; GDF8-stimulated; p-SMAD3 AlphaScreen; read-out: GDF pSMAD (MPC11) (inhibition of GDF8 signaling).

The structures appear in SMILES notation.

As to `Cn1c(=O)cnc2ccc(-c3cccnc3-c3cc(Cl)ccc3F)cc21` [compound 889, 7-(2-(5-Chloro-2-fluorophenyl)pyridin-3-yl)-1-methylquinoxalin-2(1H)-one], the IC50 stood at 1520 nM.
On to `O=c1cnc2ccc(-c3cccnc3-c3ccc(F)c(Cl)c3)cc2[nH]1` [compound 890, 7-(2-(3-Chloro-4-fluorophenyl)pyridin-3-yl)quinoxalin-2(1H)-one], for which the IC50 was 1300 nM.
Take `Cc1cc(-c2ncccc2-c2ccc3ncc(=O)[nH]c3c2)ccc1F` [compound 891, 7-(2-(4-Fluoro-3-methylphenyl)pyridin-3-yl)quinoxalin-2(1H)-one]: the IC50 came to 632 nM.
Turning to `O=c1cnc2ccc(-c3cccnc3-c3cc(Cl)ccc3F)cc2[nH]1` [compound 892, 7-(2-(5-Chloro-2-fluorophenyl)pyridin-3-yl)quinoxalin-2(1H)-one], the IC50 worked out at 426 nM.
Regarding `Fc1ccc(-c2ncccc2-c2ccn3nccc3n2)cc1C1CC1` [compound 896, 5-(2-(3-Cyclopropyl-4-fluorophenyl)pyridin-3-yl)pyrazolo[1,5-a]pyrimidine], the IC50 is 93.6 nM.
For the molecule `CCOC(=O)c1cnn2ccc(-c3cccnc3-c3ccc(F)c(Cl)c3)nc12` [compound 898, Ethyl 5-(2-(3-chloro-4-fluorophenyl)pyridin-3-yl)pyrazolo[1,5-a]pyrimidine-3-carboxylate], the IC50 was determined as 714 nM.
Turning to `CN1CCC(NC(=O)c2cnn3ccc(-c4cccnc4-c4ccc(F)c(Cl)c4)nc23)CC1` [compound 899, 5-(2-(3-Chloro-4-fluorophenyl)pyridin-3-yl)-N-(1-methylpiperidin-4-yl)pyrazolo[1,5-a]pyrimidine-3-carboxamide], the IC50 was 2140 nM.
Regarding `N#Cc1cnn2ccc(-c3cccnc3-c3ccc(F)c(Cl)c3)nc12` [compound 900, 5-(2-(3-Chloro-4-fluorophenyl)pyridin-3-yl)pyrazolo[1,5-a]pyrimidine-3-carbonitrile], the IC50 worked out at 2350 nM.
Consider `Cc1cc(-c2ncccc2-c2ccn3ncc(C#N)c3n2)ccc1F` [compound 901, 5-(2-(4-Fluoro-3-methylphenyl)pyridin-3-yl)pyrazolo[1,5-a]pyrimidine-3-carbonitrile], for which the IC50 was 1060 nM.
The value for `COc1cc(Nc2nccc(-c3cccnc3-c3ccc(F)c(C)c3)n2)cc(OC)c1OC` [compound 903, 4-(2-(4-Fluoro-3-methylphenyl)pyridin-3-yl)-N-(3,4,5-trimethoxyphenyl)pyrimidin-2-amine] was 2580 nM.
`Cc1cc(-c2ncccc2-c2ccnc(Nc3ccc(N4CCOCC4)cc3)n2)ccc1F` [compound 904, 4-(2-(4-Fluoro-3-methylphenyl)pyridin-3-yl)-N-(4-morpholinophenyl)pyrimidin-2-amine]: the IC50 was found to be 9070 nM.
In the case of `Cc1cc(-c2ncccc2-c2ccnc(Nc3cccc(N4CCOCC4)c3)n2)ccc1F` [compound 905, 4-(2-(4-Fluoro-3-methylphenyl)pyridin-3-yl)-N-(3-morpholinophenyl)pyrimidin-2-amine], the IC50 was found to be 1490 nM.
For `Cc1cc(-c2ncccc2-c2ccnc(Nc3ccc(S(N)(=O)=O)cc3)n2)ccc1F` [compound 906, 4-((4-(2-(4-Fluoro-3-methylphenyl)pyridin-3-yl)pyrimidin-2-yl)amino)benzenesulfonamide], the IC50 came out at 3340 nM.
`Cc1cc(-c2ncccc2-c2ccnc(Nc3cccc(S(N)(=O)=O)c3)n2)ccc1F` [compound 907, 3-((4-(2-(4-Fluoro-3-methylphenyl)pyridin-3-yl)pyrimidin-2-yl)amino)benzenesulfonamide]: the IC50 was found to be 164 nM.
The value for `Cc1cc(-c2ncccc2-c2ccn3nccc3n2)ccc1F` [compound 910, 5-(2-(4-Fluoro-3-methylphenyl)pyridin-3-yl)pyrazolo[1,5-a]pyrimidine] was 97.2 nM; that for `Cc1cccc(-c2ncccc2-c2ccn3nccc3n2)c1` [compound 911, 5-(2-(m-Tolyl)pyridin-3-yl)pyrazolo[1,5-a]pyrimidine] was 93.9 nM; that for `c1cc(-c2ncccc2-c2ccn3nccc3n2)cc(C2CC2)c1` [compound 912, 5-(2-(3-Cyclopropylphenyl)pyridin-3-yl)pyrazolo[1,5-a]pyrimidine] was 112 nM.
For the molecule `FC(F)(F)c1cccc(-c2ncccc2-c2ccn3nccc3n2)c1` [compound 913, 5-(2-(3-(Trifluoromethyl)phenyl)pyridin-3-yl)pyrazolo[1,5-a]pyrimidine], the IC50 was 661 nM.
With `Fc1ccc(-c2ncccc2-c2ccn3nccc3n2)cc1Cl` [compound 914, 5-(2-(3-Chloro-4-fluorophenyl)pyridin-3-yl)pyrazolo[1,5-a]pyrimidine], the IC50 turned out to be 126 nM.
In the case of `Fc1cc(F)c(-c2ncccc2-c2ccn3nccc3n2)cc1F` [compound 915, 5-(2-(2,4,5-Trifluorophenyl)pyridin-3-yl)pyrazolo[1,5-a]pyrimidine], the IC50 came to 558 nM.
The value for `Clc1cccc(-c2ncccc2-c2ccn3nccc3n2)c1` [compound 916, 5-(2-(3-Chlorophenyl)pyridin-3-yl)pyrazolo[1,5-a]pyrimidine] was 104 nM; that for `Fc1ccc(Cl)cc1-c1ncccc1-c1ccn2nccc2n1` [compound 917, 5-(2-(5-Chloro-2-fluorophenyl)pyridin-3-yl)pyrazolo[1,5-a]pyrimidine] was 180 nM; that for `Fc1cc(F)c(-c2ncccc2-c2ccn3nccc3n2)cc1Cl` [compound 918, 5-(2-(5-Chloro-2,4-difluorophenyl)pyridin-3-yl)pyrazolo[1,5-a]pyrimidine] was 206 nM.
On to `Clc1ccc(Cl)c(-c2ncccc2-c2ccn3nccc3n2)c1` [compound 920, 5-(2-(2,5-Dichlorophenyl)pyridin-3-yl)pyrazolo[1,5-a]pyrimidine], for which the IC50 is 272 nM.
Next, `FC(F)Oc1cccc(-c2ncccc2-c2ccn3nccc3n2)c1` [compound 921, 5-(2-(3-(Difluoromethoxy)phenyl)pyridin-3-yl)pyrazolo[1,5-a]pyrimidine]: 70.6 nM; `Cc1cc(-c2ncccc2-c2ccc3nccn3n2)ccc1F` [compound 934, 6-(2-(4-Fluoro-3-methylphenyl)pyridin-3-yl)imidazo[1,2-b]pyridazine]: 410 nM; `Fc1ccc(-c2ncccc2-c2ccc3nccn3n2)cc1Cl` [compound 935, 6-(2-(3-Chloro-4-fluorophenyl)pyridin-3-yl)imidazo[1,2-b]pyridazine]: 192 nM.
As for `Clc1cccc(-c2ncccc2-c2ccc3nccn3n2)c1` [compound 936, 6-(2-(3-Chlorophenyl)pyridin-3-yl)imidazo[1,2-b]pyridazine], the IC50 stood at 228 nM.
On to `Fc1cc(F)c(-c2ncccc2-c2ccc3nccn3n2)cc1Cl` [compound 938, 6-(2-(5-Chloro-2,4-difluorophenyl)pyridin-3-yl)imidazo[1,2-b]pyridazine], for which the IC50 is 242 nM.
Consider `Cc1cc(-c2ncccc2-c2ccc3ncc(C#N)n3n2)ccc1F` [compound 947, 6-(2-(4-Fluoro-3-methylphenyl)pyridin-3-yl)imidazo[1,2-b]pyridazine-3-carbonitrile], for which the IC50 came to 429 nM.
With `N#Cc1cnc2ccc(-c3cccnc3-c3ccc(F)c(Cl)c3)nn12` [compound 948, 6-(2-(3-Chloro-4-fluorophenyl)pyridin-3-yl)imidazo[1,2-b]pyridazine-3-carbonitrile], the IC50 was found to be 951 nM.
Take `N#Cc1cnc2ccc(-c3cccnc3-c3cccc(Cl)c3)nn12` [compound 949, 6-(2-(3-Chlorophenyl)pyridin-3-yl)imidazo[1,2-b]pyridazine-3-carbonitrile]: the IC50 was 375 nM.
Turning to `N#Cc1cnc2ccc(-c3cccnc3-c3cc(Cl)ccc3F)nn12` [compound 950, 6-(2-(5-Chloro-2-fluorophenyl)pyridin-3-yl)imidazo[1,2-b]pyridazine-3-carbonitrile], the IC50 is 129 nM.
As to `N#Cc1cnc2ccc(-c3cccnc3-c3cc(Cl)c(F)cc3F)nn12` [compound 951, 6-(2-(5-Chloro-2,4-difluorophenyl)pyridin-3-yl)imidazo[1,2-b]pyridazine-3-carbonitrile], the IC50 worked out at 543 nM.
On to `Cc1cc(-c2ncccc2-c2ccc3ncnn3n2)ccc1F` [compound 952, 6-(2-(4-Fluoro-3-methylphenyl)pyridin-3-yl)-[1,2,4]triazolo[1,5-b]pyridazine], for which the IC50 was determined as 391 nM.
Take `Fc1ccc(-c2ncccc2-c2ccc3ncnn3n2)cc1Cl` [compound 953, 6-(2-(3-Chloro-4-fluorophenyl)pyridin-3-yl)-[1,2,4]triazolo[1,5-b]pyridazine]: the IC50 turned out to be 661 nM.
`Clc1cccc(-c2ncccc2-c2ccc3ncnn3n2)c1` [compound 954, 6-(2-(3-Chlorophenyl)pyridin-3-yl)-[1,2,4]triazolo[1,5-b]pyridazine]: the IC50 came out at 438 nM.
Regarding `Fc1ccc(Cl)cc1-c1ncccc1-c1ccc2ncnn2n1` [compound 955, 6-(2-(5-Chloro-2-fluorophenyl)pyridin-3-yl)-[1,2,4]triazolo[1,5-b]pyridazine], the IC50 came out at 290 nM.
`Fc1cc(F)c(-c2ncccc2-c2ccc3ncnn3n2)cc1Cl` [compound 956, 6-(2-(5-Chloro-2,4-difluorophenyl)pyridin-3-yl)-[l 1,2,4]triazolo[1,5-b]pyridazine]: the IC50 came to 421 nM.
As to `O=c1[nH]cnc2ccc(-c3cccnc3-c3ccc(F)c(Cl)c3)nc12` [compound 960, 6-(2-(3-Chloro-4-fluorophenyl)pyridin-3-yl)pyrido[3,2-d]pyrimidin-4(3H)-one], the IC50 turned out to be 1680 nM.
Turning to `FC(F)Oc1cccc(-c2ncccc2-c2ccc3ncsc3c2)c1` [compound 961, 6-(2-(3-(Difluoromethoxy)phenyl)pyridin-3-yl)benzo[d]thiazole], the IC50 was determined as 129 nM.
Regarding `FC(F)Oc1cccc(-c2ncccc2-c2ccc3nccnc3c2)c1` [compound 962, 6-(2-(3-(Difluoromethoxy)phenyl)pyridin-3-yl)quinoxaline], the IC50 came out at 622 nM.
As to `Cn1cnc2ccc(-c3cccnc3-c3cccc(OC(F)F)c3)cc21` [compound 963, 6-(2-(3-(Difluoromethoxy)phenyl)pyridin-3-yl)-1-methyl-1H-benzo[d]imidazole], the IC50 came out at 175 nM.

(Values after US10858335B2 (Rigel Pharmaceuticals, Inc., priority 2014, dated 2020).)
